Tests used:
human SGLT2 = target: T1, human SGLT2 (Homo sapiens, UniProt P31639); assay: Assay for SGLT2 inhibition (14C-AMG uptake in CHOK1 cells expressing human SGLT2); type: cell-based; details: CHOK1 cells expressing human SGLT2; 14C-AMG uptake, 0.5 mM, 2 hours at 37° C.; read-out: IC50
T1 construct: expressed in transfected cells; host or cells: CHOK1 (Chinese hamster ovary) cells, kept under Geneticin selection
T1 sequence (P31639 1-672): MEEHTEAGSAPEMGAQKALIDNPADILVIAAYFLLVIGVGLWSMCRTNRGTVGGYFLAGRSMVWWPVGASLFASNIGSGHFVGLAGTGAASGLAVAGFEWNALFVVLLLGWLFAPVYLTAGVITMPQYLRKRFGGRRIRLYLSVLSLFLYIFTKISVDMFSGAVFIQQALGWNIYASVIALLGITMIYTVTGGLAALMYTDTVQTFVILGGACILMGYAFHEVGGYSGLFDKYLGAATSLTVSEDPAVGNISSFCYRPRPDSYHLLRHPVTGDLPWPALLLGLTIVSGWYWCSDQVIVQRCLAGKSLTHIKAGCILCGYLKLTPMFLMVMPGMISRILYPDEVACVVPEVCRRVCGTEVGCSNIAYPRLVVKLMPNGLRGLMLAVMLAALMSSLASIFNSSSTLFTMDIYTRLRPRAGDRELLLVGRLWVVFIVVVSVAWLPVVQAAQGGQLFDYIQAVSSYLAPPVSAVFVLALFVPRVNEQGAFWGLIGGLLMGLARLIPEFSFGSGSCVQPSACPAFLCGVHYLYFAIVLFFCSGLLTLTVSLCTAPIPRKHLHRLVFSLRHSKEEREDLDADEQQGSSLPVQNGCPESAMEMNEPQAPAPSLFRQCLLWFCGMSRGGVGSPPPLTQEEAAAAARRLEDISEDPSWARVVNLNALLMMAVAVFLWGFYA
Protocol: 1. Assay for SGLT2 Inhibition
Compounds described in the above examples were used for the SGLT2 inhibition assay.
CHOK1 cells expressing human SGLT2 were seeded in 24-well plates at a density of 400,000 cells/well in F-12 nutrient mixture (Ham's F-12) containing 10% fetal bovine serum, 400 μg/ml Geneticin, 50 units/ml sodium penicillin G (Gibco-BRL) and 50 μg/ml streptomycin sulfate. After 2 days of culture at 37° C. in a humidified atmosphere containing 5% CO2, cells were washed once with the assay buffer (137 mM NaCl, 5 mM KCl, 1 mM CaCl2, 1 mM MgCl2, 50 mM Hepes, and 20 mM Tris, pH 7.4) and incubated with 250 μl of the buffer containing test compounds for 10 min at 37° C. Test compounds were dissolved in DMSO. The final concentration of DMSO was 0.5%. The transport reaction was initiated by addition of 50 μl [^14C]-methyl-α-D-glucopyranoside (^14C-AMG) solution (final concentration, 0.5 mM). After incubation for 2 hours at 37° C., the uptake was stopped by aspiration of the incubation mixture, the cells were washed three times with ice-cold PBS. Then, cells were solubilized with 0.3 N NaOH and aliquots were taken for determination of radioactivity by a liquid scintillation counter. Nonspecific AMG uptake was defined as that which occurred in the presence of 100 μM of phlorizin, a specific inhibitor of sodium-dependent glucose cotransporter. Specific uptake was normalized for the protein concentrations measured by the method of Bradford. The 50% inhibitory concentration (IC50) values were calculated from dose-response curves by least square method.

Sprague-Dawley (SD) rats = assay: Urinary glucose excretion test in rats; type: in vivo, rat; details: male SD rats; 30 mg/kg by oral gavage; urine collected for 24 hours; daily amount of glucose excreted in urine per individual
Protocol: 2. Urinary Glucose Excretion Test in Rats Test Compounds:
Compounds described in the above examples were used for the Urinary glucose excretion test in rats.
6-week-old male Sprague-Dawley (SD) rats were housed in individual metabolic cages with free access to food and water from 2 days prior to the experiment. On the morning of the experiment, rats were administered vehicle (0.2% carboxymethyl cellulose solution containing 0.2% Tween80) or test compounds (30 mg/kg) by oral gavage at a volume of 10 ml/kg. Then, urine of the rat was collected for 24 hours, and the urine volume was measured. Subsequently, the glucose concentration in urine was quantified using the enzymatic assay kit and the daily amount of glucose excreted in urine per individual was calculated.

Row | Structure (SMILES) | IC50 (human SGLT2) [nM] | Urinary glucose (Sprague-Dawley (SD) rats)
1 | OC[C@H]1O[C@@H](n2cc(Cc3ccc(C(F)F)cc3)c3c(Cl)cccc32)[C@H](O)[C@@H](O)[C@@H]1O [Example 30, 4-Chloro-3-(4-(difluoromethyl)phenylmethyl)-1-(β-D-gluco-pyranosyl)indole] | 3.2 | A (A≧2400 mg)
2 | OC[C@H]1O[C@@H](n2cc(Cc3ccc(I)cc3)c3c(Br)cccc32)[C@H](O)[C@@H](O)[C@@H]1O [Example 42, 4-Bromo-3-(4-iodophenylmethyl)-1-(β-D-glucopyranosyl)indole] | 6.1 | A (A≧2400 mg)
3 | CCOc1ccc(Cc2cn([C@@H]3O[C@H](CO)[C@@H](O)[C@H](O)[C@H]3O)c3ccc(F)c(Cl)c23)cc1 [Example 35, 4-Chloro-3-(4-ethoxyphenylmethyl)-5-fluoro-1-(β-D-gluco-pyranosyl)indole] | 9.1 | A (A≧2400 mg)
4 | CCOc1ccc(Cc2cn([C@@H]3O[C@H](CO)[C@@H](O)[C@H](O)[C@H]3O)c3cc(Cl)cc(Cl)c23)cc1 [Example 28, 4,6-Dichloro-3-(4-ethoxyphenylmethyl)-1-(β-D-glucopyranosyl)-indole] | 3.2 | B (2400 mg>B≧2000 mg)
5 | CCc1ccc(Cc2cn([C@@H]3O[C@H](CO)[C@@H](O)[C@H](O)[C@H]3O)c3cccc(C)c23)cc1 [Example 23, 3-(4-Ethylphenylmethyl)-4-methyl-1-(β-D-glucopyranosyl)-indole] | 1.1 | 
6 | CCc1ccc(Cc2cn([C@@H]3O[C@H](CO)[C@@H](O)[C@H](O)[C@H]3O)c3cccc(F)c23)s1 [Example 18, 3-(5-Ethylthiophen-2-yl-methyl)-4-fluoro-1-(β-D-gluco-pyranosyl)indole] | 4.1 | B (2400 mg>B≧2000 mg)
7 | Cc1ccc(Cc2cn([C@@H]3O[C@H](CO)[C@@H](O)[C@H](O)[C@H]3O)c3cccc(F)c23)cc1 [Example 24, 4-Fluoro-3-(4-methylphenylmethyl)-1-(β-D-glucopyranosyl)-indole] | 6.3 | 
8 | OC[C@H]1O[C@@H](n2cc(Cc3ccc(I)cc3)c3c(Cl)cccc32)[C@H](O)[C@@H](O)[C@@H]1O [Example 33, 4-Chloro-3-(4-iodophenylmethyl)-1-(β-D-glucopyranosyl)-indole] | 4.1 | A (A≧2400 mg)
9 | OC[C@H]1O[C@@H](n2cc(Cc3ccc(OCCF)cc3)c3c(F)cccc32)[C@H](O)[C@@H](O)[C@@H]1O [Example 12, 4-Fluoro-3-(4-(2-fluoroethyloxy)phenylmethyl)-1-(β-D-gluco-pyranosyl)indole] | 4.1 | 
10 | CCc1ccc(Cc2cn([C@@H]3O[C@H](CO)[C@@H](O)[C@H](O)[C@H]3O)c3cccc(Cl)c23)s1 [Example 16, 4-Chloro-3-(5-ethylthiophen-2-yl-methyl)-1-(β-D-gluco-pyranosyl)indole] | 2.1 | 
11 | OC[C@H]1O[C@@H](n2cc(Cc3ccc4c(c3)CCO4)c3c(Cl)cccc32)[C@H](O)[C@@H](O)[C@@H]1O [Example 21, 4-Chloro-3-(2,3-dihydrobenzo[b]furan-5-yl-methyl)-1-(β-D-glucopyranosyl)indole] | 1.8 | 
12 | CCc1ccc(Cc2cn([C@@H]3O[C@H](CO)[C@@H](O)[C@H](O)[C@H]3O)c3cccc(Cl)c23)cc1 [Example 1, 4-Chloro-3-(4-ethylphenylmethyl)-1-(β-D-glucopyranosyl)-indole] | 2.9 | 
13 | OC[C@H]1O[C@@H](n2cc(Cc3ccc(C(F)F)cc3)c3c(F)cccc32)[C@H](O)[C@@H](O)[C@@H]1O [Example 25, 3-(4-(Difluoromethyl)phenylmethyl)-4-fluoro-1-(β-D-gluco-pyranosyl)indole] | 11 | B (2400 mg>B≧2000 mg)
14 | COc1ccc(Cc2cn([C@@H]3O[C@H](CO)[C@@H](O)[C@H](O)[C@H]3O)c3cccc(F)c23)cc1 [Example 9, 4-Fluoro-3-(4-methoxyphenylmethyl)-1-(β-D-glucopyranosyl)-indole] | 3.3 | 
15 | OC[C@H]1O[C@@H](n2cc(Cc3ccc(OCCCl)cc3)c3c(Cl)cccc32)[C@H](O)[C@@H](O)[C@@H]1O [Example 19, 4-Chloro-3-(4-(2-chloroethyloxy)phenylmethyl)-1-(β-D-gluco-pyranosyl)indole] | 3.9 | A (A≧2400 mg)
16 | CSc1ccc(Cc2cn([C@@H]3O[C@H](CO)[C@@H](O)[C@H](O)[C@H]3O)c3cccc(F)c23)cc1 [Example 10, 4-Fluoro-3-(4-(methylthio)phenylmethyl)-1-(β-D-gluco-pyranosyl)indole] | 2.4 | 
17 | CCc1ccc(Cc2cn([C@@H]3O[C@H](CO)[C@@H](O)[C@H](O)[C@H]3O)c3cccc(Br)c23)cc1 [Example 22, 4-Bromo-3-(4-ethylphenylmethyl)-1-(β-D-glucopyranosyl)indole] | 3.7 | 
18 | Cc1cccc2c1c(Cc1ccc(-c3ccc(F)cc3)s1)cn2[C@@H]1O[C@H](CO)[C@@H](O)[C@H](O)[C@H]1O [Example 48, 3-(5-(4-Fluorophenyl)thiophen-2-yl-methyl)-4-methyl-1-(β-D-glucopyranosyl)indole] | 19 | 
19 | COc1ccc(Cc2cn([C@@H]3O[C@H](CO)[C@@H](O)[C@H](O)[C@H]3O)c3cccc(Cl)c23)cc1 [Example 5, 4-Chloro-3-(4-methoxyphenylmethyl)-1-(β-D-glucopyranosyl)-indole] | 1.8 | 
20 | CSc1ccc(Cc2cn([C@@H]3O[C@H](CO)[C@@H](O)[C@H](O)[C@H]3O)c3cccc(Cl)c23)cc1 [Example 4, 4-Chloro-3-(4-(methylthio)phenylmethyl)-1-(β-D-gluco-pyranosyl)indole] | 1.7 | 
21 | Cc1cccc2c1c(Cc1ccc(-c3cccc(C#N)c3)s1)cn2[C@@H]1O[C@H](CO)[C@@H](O)[C@H](O)[C@H]1O [Example 45, 3-(5-(3-Cyanophenyl)-thiophen-2-yl-methyl)-4-methyl-1-(β-D-glucopyranosyl)indole] | 2.5 | 
22 | Cc1cccc2c1c(Cc1ccc(-c3ccc(F)nc3)s1)cn2[C@@H]1O[C@H](CO)[C@@H](O)[C@H](O)[C@H]1O [Example 49, 3-(5-(6-Fluoro-3-pyridyl)thiophen-2-yl-methyl)-4-methyl-1-(β-D-glucopyranosyl)indole] | 8.8 | 
23 | Cc1ccc(Cc2cn([C@@H]3O[C@H](CO)[C@@H](O)[C@H](O)[C@H]3O)c3cccc(Cl)c23)cc1 [Example 11, 4-Chloro-3-(4-methylphenylmethyl)-1-(β-D-glucopyranosyl)-indole] | 2.4 | 
24 | Cc1cccc2c1c(Cc1ccc(-c3ccccc3)s1)cn2[C@@H]1O[C@H](CO)[C@@H](O)[C@H](O)[C@H]1O [Example 50, 4-Methyl-3-(5-phenylthiophen-2-yl-methyl)-1-(β-D-gluco-pyranosyl)indole] | 11 | 
25 | Cc1cccc2c1c(Cc1ccc(-c3cccs3)s1)cn2[C@@H]1O[C@H](CO)[C@@H](O)[C@H](O)[C@H]1O [Example 51, 4-Methyl-3-(5-(2-thienyl)thiophen-2-yl-methyl)-1-(β-D-gluco-pyranosyl)indole] | 6.1 | 
26 | OC[C@H]1O[C@@H](n2cc(Cc3ccc(OCCF)cc3)c3c(Cl)cccc32)[C@H](O)[C@@H](O)[C@@H]1O [Example 17, 4-Chloro-3-(4-(2-Fluoroethyloxy)phenylmethyl)-1-(β-D-glucopyranosyl)indole] | 2.5 | 

Reference: patent US7935674B2, “Indole derivatives” (Mitsubishi Tanabe Pharma Corporation, priority 2005, dated 2011)
